Literature values in patent publication US20140106026A1, “ARTICLE AND METHOD FOR TREATING, PREVENTING AND AMELIORATING ALCOHOL-INDUCED WERNICKE-KORSAKOFF SYNDROME” (priority 2012, published 2014).
Read-outs that look alike come from different tables or passages of the source.

Assays:
[1] = oral intake
[2] = not given; remark: listed apart in the source
[3] = not given; remark: listed apart in the source

solubility (in acetone, ether, chloroform, and benzene): practically insoluble
solubility (in water, methanol, and glycerol): soluble
intake above which decline in thiamine absorption occurs [1]: above 5 mg
stability ([2]; at acidic pH): stable
stability ([2]; in alkaline solutions): unstable
stability towards sulfite ([2]; sulfite as contained in wine and cordials): degrades
half-life, in vivo [3]: approximately two
SMILES: Cc1ncc(C[n+]2csc(CCO)c2C)c(N)n1 [Thiamine]
